# Experimental data: publication PMC5238392, “Origin of anti-tumor activity of the cysteine-containing GO peptides and further optimization of their cytotoxic properties” (Scientific Reports, 2017)
# Test system: HT-1080 cells
# Assay: H2DCFDA intracellular ROS measurement, HT-1080
# Type: cell-based, human
# Details: 5 μM, 30 min after application
# Procedure: Having established these premises, we repeated the measurements using the ROS-sensitive probe H2DCFDA instead of DCFDA. We have observed small, but statistically significant difference between the HT-1080 cells treated by GO-203 and control cells. Specifically, 30 min after application of the peptide the fluorescence signal from the treated cells was ca. 20% lower than the control, 82 ± 6 vs. 100 ± 7 (arbitrary units). The drop in fluorescence from cells that have been treated with GO-203 should be unequivocally attributed to the decreased level of ROS. The effect is small and unlikely to be the source of GO-203 cytotoxic activity. […] The detected drop in ROS level was below the level of statistical significance, 98 ± 3 vs. 100 ± 11 (see Fig. S3). […]
# The cells were seeded into 35-mm Nunc culture dishes (Thermo Scientific, USA) at 1.2 × 10^5 cells per dish and allowed to attach for 24 h. […] After that GO-203 was added directly to the suspension and cell fluorescence was measured by flow cytometry at multiple time points during the following 2 hours. […] Cell fluorescence was then immediately measured by flow cytometry. […]
# Cell fluorescence was measured using CytoFLEX (Beckman Coulter, USA) flow cytometer equipped with 3 lasers (405, 488 and 633 nm). […] Mean fluorescence intensity from 10,000 cells was acquired. […]
substance,measurement,setting,value
"[R]9CQCRRKN [GO-203, in clinical trials]",Decrease of H2DCFDA fluorescence signal versus control,,ca. 20%
same,H2DCFDA fluorescence signal (ROS level),"control 100 ± 7, mean and SD",82 ± 6 arbitrary units
